Source: patent publication US10561703B2, “Method of modulating sex hormone levels using a sex hormone secretion modulator” (GEMVAX & KAEL CO., LTD., priority 2013, dated 2020)

Test system: FSH
Assay: FSH level in blood (serum CLIA) after repeated sc PEP-1
Type: in vivo, SD rats
Procedure: PEP-1 (peptide of SEQ ID NO: 1), lyophilized white powder, obtained according to the method mentioned in example 1 was dissolved in 0.9% of saline, considering the correction factor of PEP-1 (purity: 94.13%, content: 92.36%, correction factor: 1.15). 50 mg/mL stock solution was further diluted into 20 mg/mL, 2 mg/mL, and 1 mg/mL with 0.9% saline, and stored at 4° C. for a week until the use.
The purpose of this example is to confirm the change of sexual hormones in blood from SD rats with 7 days repeated daily administration of SEQ ID NO: 1 peptide, PEP-1. This experiment followed the Ethics Regulation of Animal Test by KAMSI Inc. (Korea Animal Medical Science Institute). In addition, this experiment, Non-GLP experiment, referred to the MFDS (Ministry of Food and Drug Safety) notification; Agent 2013-40 (5th April 2013), Principles of Good Laboratory Practice (1997).
SPF Rats (Crlj:CD(SD)) were purchased from ORIENTBio Inc. (Mokdong-ri, Buk-myeon, Gapyeong-gun, Gyeonggi-do, Republic of Korea). 75 male (6.5 weeks old and 190˜210 g) and 75 female (6.5 weeks old and 160˜180 g) rats were monitored for 4 days, and 64 of male and female rats (each) were selected for the experiment. Raising condition is as follows; 23±3° C. of temperature, […] of relative humidity, 10˜20 times/hr of number of air changes, 12 hours (8 a.m.˜8 p.m.) of lighting with 150˜300 Lux of intensity.
64 male and female […] (mentioned above) were divided into 8 groups. Administration regimen, for example, drugs, routes, dosages, and volumes were as follows:
The detailed administration regimen is as follows; once a day, twice a day and twice a week in each experimental group. Injection initiated at 10 a.m. every day, and each rat was injected at one minute intervals. Rats in Group 9, 10, 13 and 14 were injected twice a week. Administration of high dose test agent preceded that of low dose. The volume of injection was calculated using recently measured weight of rats, and it was 5 mL/kg. Subcutaneous injection was performed as follows; assistant tilted the back of rat upward, and experimenter sterilized the back of rat with 70% alcohol, followed by subcutaneous injection of test agent with 26 G syringe.
1.4 mL of blood sample (0.7 mL of serum) was collected after measurement of weight (Day 0). Next day (1 Day), 1.4 mL of blood sample (0.7 mL of serum) was collected twice after injection of test agent (4 hrs and 8 hrs after administration of test agent). For next 6 days (Day 2˜Day 7), 1.4 mL of blood was extracted once everyday (4 hours after injection of test agent). Dose and volume of test agent of each group followed the Table 3, and injection time zone was same every day. Blood was extracted from the jugular vein, and left at room temperature for 30 minutes. Serum was separated using centrifugation (10,000 rpm for 5 minutes), and stored at −70±5° C. in Deep freezer until the use. Blood extraction from each subject was done in the same time zone every day.
A CLIA (Chemi-Luminescence Immune Assay) Kit was used to analyze Testosterone, Estradiol E2, FSH (Follicle stimulating hormone), and LH (Luteinizing hormone). Analysis was completed within 48 hrs after blood extraction (Laboratory Medicine Department, Chung-Ang University Hospital), and detailed method is as follows; One-way ANOVA was used to verify the comparison between the vehicle and PEP-1, and between different doses of PEP-1. For further analysis, Duncan test was used as parametric test and Dunnett's test as non-parametric test. p<0.05 represents the statistical significance, and all statistical analysis was carried out with SPSS 10.1.
FSH was analyzed using the samples prepared from example 2. 100 μL of serum was used for analysis. Fundamentals of analysis is Two-site sandwich immunoassay based on direct chemi-luminescent. As mentioned in example 2, CLIA (Chemi-luminescence immune assay) Kit was used, following the manufacture's protocol.

“EARPALLTSRLRFIPK (listed as Homo sapiens) [PEP-1, hormone secretion modulator / GnRH analog]” was tested, and the “FSH level in blood” value (G11 Male 100 mg/kg sc 1/day x7, 4 days) was 0.23 mIU/mL, the “FSH level in blood” value (G11 Male 100 mg/kg sc 1/day x7, 5 days) was 0.21 mIU/mL and the “FSH level in blood” value (G11 Male 100 mg/kg sc 1/day x7, 6 days) was 0.12 mIU/mL. The “FSH level in blood” value (G11 Male 100 mg/kg sc 1/day x7, 7 days) was 0.15 mIU/mL, the “FSH level in blood” value (G11 Male 100 mg/kg sc 1/day x7, pre) was 0.17 mIU/mL and the “FSH level in blood” value (G12 Female 100 mg/kg sc 1/day x7, 4 hr) was 0.23 mIU/mL. For the same sequence, the “FSH level in blood” value (G12 Female 100 mg/kg sc 1/day x7, 8 hr) was 0.25 mIU/mL, the “FSH level in blood” value (G12 Female 100 mg/kg sc 1/day x7, 2 days) was 0.28 mIU/mL and the “FSH level in blood” value (G12 Female 100 mg/kg sc 1/day x7, 3 days) was 0.19 mIU/mL. The “FSH level in blood” value (G12 Female 100 mg/kg sc 1/day x7, 4 days) was 0.15 mIU/mL, the “FSH level in blood” value (G12 Female 100 mg/kg sc 1/day x7, 5 days) was 0.21 mIU/mL and the “FSH level in blood” value (G12 Female 100 mg/kg sc 1/day x7, 6 days) was 0.1 mIU/mL. The “FSH level in blood” value (G12 Female 100 mg/kg sc 1/day x7, 7 days) was 0.12 mIU/mL, the “FSH level in blood” value (G12 Female 100 mg/kg sc 1/day x7, pre) was 0.21 mIU/mL and the “FSH level in blood” value (G13 Male 100 mg/kg sc 2/week x2 (days 1,7), 4 hr) was 0.21 mIU/mL. The “FSH level in blood” value (G13 Male 100 mg/kg sc 2/week x2 (days 1,7), 8 hr) was 0.23 mIU/mL, the “FSH level in blood” value (G13 Male 100 mg/kg sc 2/week x2 (days 1,7), 2 days) was 0.24 mIU/mL and the “FSH level in blood” value (G13 Male 100 mg/kg sc 2/week x2 (days 1,7), 3 days) was 0.19 mIU/mL. The “FSH level in blood” value (G13 Male 100 mg/kg sc 2/week x2 (days 1,7), 4 days) was 0.26 mIU/mL, the “FSH level in blood” value (G13 Male 100 mg/kg sc 2/week x2 (days 1,7), 5 days) was 0.37 mIU/mL and the “FSH level in blood” value (G13 Male 100 mg/kg sc 2/week x2 (days 1,7), 6 days) was 0.19 mIU/mL. For the same sequence, the “FSH level in blood” value (G13 Male 100 mg/kg sc 2/week x2 (days 1,7), 7 days) was 0.14 mIU/mL, the “FSH level in blood” value (G13 Male 100 mg/kg sc 2/week x2 (days 1,7), pre) was 0.38 mIU/mL and the “FSH level in blood” value (G14 Female 100 mg/kg sc 2/week x2 (days 1,7), 4 hr) was 0.48 mIU/mL. For the same sequence, the “FSH level in blood” value (G14 Female 100 mg/kg sc 2/week x2 (days 1,7), 8 hr) was 0.4 mIU/mL, the “FSH level in blood” value (G14 Female 100 mg/kg sc 2/week x2 (days 1,7), 2 days) was 0.23 mIU/mL and the “FSH level in blood” value (G14 Female 100 mg/kg sc 2/week x2 (days 1,7), 3 days) was 0.17 mIU/mL. The “FSH level in blood” value (G14 Female 100 mg/kg sc 2/week x2 (days 1,7), 4 days) was 0.14 mIU/mL, the “FSH level in blood” value (G14 Female 100 mg/kg sc 2/week x2 (days 1,7), 5 days) was 0.24 mIU/mL and the “FSH level in blood” value (G14 Female 100 mg/kg sc 2/week x2 (days 1,7), 6 days) was 0.17 mIU/mL. For the same sequence, the “FSH level in blood” value (G14 Female 100 mg/kg sc 2/week x2 (days 1,7), 7 days) was 0.22 mIU/mL, the “FSH level in blood” value (G14 Female 100 mg/kg sc 2/week x2 (days 1,7), pre) was 0.17 mIU/mL and the “FSH level in blood” value (G15 Male 250 mg/kg sc 1/day x7, 4 hr) was 0.26 mIU/mL. The “FSH level in blood” value (G15 Male 250 mg/kg sc 1/day x7, 8 hr) was 0.35 mIU/mL, the “FSH level in blood” value (G15 Male 250 mg/kg sc 1/day x7, 2 days) was 0.44 mIU/mL and the “FSH level in blood” value (G15 Male 250 mg/kg sc 1/day x7, 3 days) was 0.12 mIU/mL. For the same sequence, the “FSH level in blood” value (G15 Male 250 mg/kg sc 1/day x7, 4 days) was 0.23 mIU/mL, the “FSH level in blood” value (G15 Male 250 mg/kg sc 1/day x7, 5 days) was 0.25 mIU/mL and the “FSH level in blood” value (G15 Male 250 mg/kg sc 1/day x7, 6 days) was 0.1 mIU/mL. For the same sequence, the “FSH level in blood” value (G15 Male 250 mg/kg sc 1/day x7, 7 days) was 0.12 mIU/mL, the “FSH level in blood” value (G15 Male 250 mg/kg sc 1/day x7, pre) was 0.38 mIU/mL and the “FSH level in blood” value (G16 Female 250 mg/kg sc 1/day x7, 4 hr) was 0.27 mIU/mL. For the same sequence, the “FSH level in blood” value (G16 Female 250 mg/kg sc 1/day x7, 8 hr) was 0.3 mIU/mL, the “FSH level in blood” value (G16 Female 250 mg/kg sc 1/day x7, 2 days) was 0.34 mIU/mL and the “FSH level in blood” value (G16 Female 250 mg/kg sc 1/day x7, 3 days) was 0.20 mIU/mL. The “FSH level in blood” value (G16 Female 250 mg/kg sc 1/day x7, 4 days) was 0.12 mIU/mL, the “FSH level in blood” value (G16 Female 250 mg/kg sc 1/day x7, 5 days) was 0.19 mIU/mL and the “FSH level in blood” value (G16 Female 250 mg/kg sc 1/day x7, 6 days) was 0.18 mIU/mL. The “FSH level in blood” value (G16 Female 250 mg/kg sc 1/day x7, 7 days) was 0.08 mIU/mL, the “FSH level in blood” value (G16 Female 250 mg/kg sc 1/day x7, pre) was 0.19 mIU/mL and the “Change in FSH level compared to baseline” value (male and female, Day 1, 4 hr and 8 hr post injection, in particular high doses (G11 to G16)) was “slight increase”.
